According to ChEMBL document CHEMBL1201862, “PubChem BioAssay data set” (2004):
Active and inactive are the calls of the source. Rule as the data show it, for most assays here: actives have a measured EC50 and inactives only a lower limit.

What was measured:
[1] = target: Luciferin 4-monooxygenase (Photinus pyralis, UniProt P08659); assay: inhibition of purified Photinus pyralis luciferase – biochemical, luminescence, dose response (AID 1891)
[2] = Luminescence Cell-Based Dose Confirmation HTS to Identify Inhibitors of Platelet Dense Granule Release. [Related pubchem assays: 1663 (Primary HTS), 1678 (Summary of Project)]; assay type: functional
[3] = target: T1, Corticotropin-releasing factor receptor 2/Corticotropin-releasing factor-binding protein (Homo sapiens, UniProt P24387+Q13324); assay: Dose Response confirmation of uHTS hits for small molecule antagonists of the CRF-binding protein and CRF-R2 receptor complex.; assay type: functional; settings: read-out: IC50_Mean
T1 sequence (Q13324 whole entry): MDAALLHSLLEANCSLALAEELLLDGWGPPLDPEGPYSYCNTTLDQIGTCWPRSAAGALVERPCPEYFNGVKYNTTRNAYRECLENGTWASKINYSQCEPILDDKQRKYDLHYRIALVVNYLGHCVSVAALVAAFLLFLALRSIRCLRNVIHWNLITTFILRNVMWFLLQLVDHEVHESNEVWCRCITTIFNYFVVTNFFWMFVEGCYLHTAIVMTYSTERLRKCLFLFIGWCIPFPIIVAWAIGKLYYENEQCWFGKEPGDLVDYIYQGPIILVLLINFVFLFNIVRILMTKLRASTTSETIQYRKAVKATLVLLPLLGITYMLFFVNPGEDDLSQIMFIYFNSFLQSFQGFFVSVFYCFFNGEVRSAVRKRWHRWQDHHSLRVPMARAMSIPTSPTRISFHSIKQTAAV
T1 sequence (P24387 whole entry): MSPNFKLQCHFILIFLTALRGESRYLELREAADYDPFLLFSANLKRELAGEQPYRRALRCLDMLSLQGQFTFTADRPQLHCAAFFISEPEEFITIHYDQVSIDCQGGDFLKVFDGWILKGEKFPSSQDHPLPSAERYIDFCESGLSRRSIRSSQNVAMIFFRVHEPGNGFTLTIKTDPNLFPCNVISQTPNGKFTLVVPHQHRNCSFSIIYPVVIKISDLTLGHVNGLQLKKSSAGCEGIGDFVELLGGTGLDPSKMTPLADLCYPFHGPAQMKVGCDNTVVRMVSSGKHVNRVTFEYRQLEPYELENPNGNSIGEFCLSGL

[4] = target: T1, Corticotropin-releasing factor receptor 2/Corticotropin-releasing factor-binding protein; assay: activators of CRF receptor 2 with binding protein – uHTS hits, confirmation (AID 602473); assay type: functional; settings: read-out: EC50_Mean
[5] = luciferase reporter signal suppression in cells – H4 neuroglioma cells, luminescence, dose response (AID 1990); assay type: functional, cell-based
[6] = Luminescence Cell-Based Dose Response HTS to Identify Inhibitors of 5'UTR Stem-Loop Driven Prion Protein mRNA Translation in H4 Neuroglioblastoma Cells. [Related pubchem assays: 1827 (Project Summary), 1813 (Primary HTS)]; assay type: functional
[7] = alpha-synuclein stem-loop luciferase translation blockers – H4 neuroglioma cells, luminescence, confirmation (AID 1988); assay type: functional, cell-based
[8] = test system: Streptococcus sp. 'group A'; assay: Streptococcus pyogenes SK(-)GAS viability under kanamycin – luminescence, BacTiterGlo, confirmation, counter-screen for streptokinase expression inhibitor project, dose response (AID 1900); assay type: functional, organism-based
Streptokinase A = target: T2, Streptokinase A (Streptococcus pyogenes serotype M1, UniProt P10520); assay: viability-normalized secreted streptokinase activity reduction – plasminogen activation absorbance, OD405, dose response (AID 1914); assay type: functional, Streptococcus pyogenes M1 GAS;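 also: secreted streptokinase activity via plasminogen activation per viability signal from cell pellet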
T2 sequence (P10520 whole entry): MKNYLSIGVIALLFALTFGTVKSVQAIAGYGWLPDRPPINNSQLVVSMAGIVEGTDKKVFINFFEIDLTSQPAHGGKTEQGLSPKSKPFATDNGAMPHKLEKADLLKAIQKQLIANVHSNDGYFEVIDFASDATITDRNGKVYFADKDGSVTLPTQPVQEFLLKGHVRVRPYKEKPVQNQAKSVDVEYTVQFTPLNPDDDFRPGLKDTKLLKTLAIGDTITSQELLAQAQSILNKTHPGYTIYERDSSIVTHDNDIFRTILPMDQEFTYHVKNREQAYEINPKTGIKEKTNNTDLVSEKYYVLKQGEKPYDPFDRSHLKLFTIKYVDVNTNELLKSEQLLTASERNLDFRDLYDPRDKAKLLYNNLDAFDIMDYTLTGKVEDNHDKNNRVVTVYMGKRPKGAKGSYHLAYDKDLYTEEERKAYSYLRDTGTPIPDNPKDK

Streptococcus = assay: GAS UMAA2166 growth inhibition – luminescence, BacTiterGlo, counter-screen for streptokinase expression inhibitor project, dose response (AID 1915); assay type: functional, organism-based;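 also: potency for reduction of bacterial viability or growth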
Cytochrome P450 2C9 = Cytochrome P450 2C9 (Homo sapiens, UniProt P11712)
Chain of Cytochrome P450 2C9 (P11712 whole entry): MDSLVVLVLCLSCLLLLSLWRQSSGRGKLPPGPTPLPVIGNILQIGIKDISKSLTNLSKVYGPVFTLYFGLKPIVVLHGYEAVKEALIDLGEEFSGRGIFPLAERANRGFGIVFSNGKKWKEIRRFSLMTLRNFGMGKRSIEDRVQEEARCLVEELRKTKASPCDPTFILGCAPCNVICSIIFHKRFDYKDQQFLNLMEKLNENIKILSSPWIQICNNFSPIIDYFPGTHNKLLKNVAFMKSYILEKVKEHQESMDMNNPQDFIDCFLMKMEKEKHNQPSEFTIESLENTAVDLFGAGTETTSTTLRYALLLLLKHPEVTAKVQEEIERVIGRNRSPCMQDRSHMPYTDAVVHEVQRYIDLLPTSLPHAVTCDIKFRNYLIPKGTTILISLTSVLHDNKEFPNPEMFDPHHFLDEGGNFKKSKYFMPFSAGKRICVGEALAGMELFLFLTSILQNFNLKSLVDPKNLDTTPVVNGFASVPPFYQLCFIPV

BJ [9] = assay: BJ-TERT fibroblast viability loss – cell-based, RAS-independent, luminescence, dose response (AID 1933); assay type: functional; settings: Homo sapiens
BJ [10] = assay: cells; assay type: functional, cell-based; settings: Homo sapiens
BJ [11] = assay: BJ-TERT-LT-ST fibroblast viability loss – cell-based, RAS-independent, luminescence, dose response (AID 1935); assay type: functional; settings: Homo sapiens;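 also: BJ fibroblasts immortalized with TERT plus LT and ST oncogenes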
[12] = DRD fibroblast viability loss – cell-based, non-viral oncogenic, luminescence, dose response (AID 1934); assay type: functional; settings: Homo sapiens
cells [13] = assay type: functional, cell-based
cells [14] = assay type: functional, cell-based; remark: listed apart in the source

Chain of Luciferin 4-monooxygenase (P08659 whole entry): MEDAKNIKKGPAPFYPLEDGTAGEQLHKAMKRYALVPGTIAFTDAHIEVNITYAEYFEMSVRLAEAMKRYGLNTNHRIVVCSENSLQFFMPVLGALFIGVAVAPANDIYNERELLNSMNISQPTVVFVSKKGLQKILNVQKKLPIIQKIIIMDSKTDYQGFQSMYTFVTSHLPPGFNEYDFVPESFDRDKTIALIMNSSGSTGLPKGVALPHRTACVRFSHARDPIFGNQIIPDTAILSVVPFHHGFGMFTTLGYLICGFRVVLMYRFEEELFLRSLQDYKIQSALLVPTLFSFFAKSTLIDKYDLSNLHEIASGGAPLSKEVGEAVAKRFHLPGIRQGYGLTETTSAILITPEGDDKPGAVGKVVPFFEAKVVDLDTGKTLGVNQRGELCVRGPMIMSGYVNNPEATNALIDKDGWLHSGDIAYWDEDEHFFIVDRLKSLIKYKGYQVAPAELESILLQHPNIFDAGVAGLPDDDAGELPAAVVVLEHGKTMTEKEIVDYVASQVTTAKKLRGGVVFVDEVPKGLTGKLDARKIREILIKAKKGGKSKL

In the case of `CC(NC(=O)CCc1nc2cc(S(=O)(=O)N3CCOCC3)ccc2n1C)c1ccc(S(N)(=O)=O)cc1` (configuration not stated), the EC50 [1] is reported as > 112 µM (not active) and the EC50 [2] is reported as 41.7 µM (active).

In the case of `Cc1ccc2c(c1)Oc1ccccc1N=C2`, the IC50 [3] is reported as > 47.1 µM (inactive) and the EC50 [4] is reported as > 53 µM (inactive).

In the case of `CCCC1(C(=O)OC)NC(c2ccco2)C2C(=O)N(C)C(=O)C21` (configuration not stated), the EC50 [5] is reported as > 120 µM (not active), the EC50 [6] is reported as > 120 µM (not active) and the EC50 [7] is reported as > 120 µM (not active).

For `Cc1nnc(N2CCC(C(=O)NC3CCC(C)CC3)CC2)c2nn(-c3ccc(Cl)cc3)c(C)c12` (configuration not stated), the EC50 [5] was 14.7 µM (active), the EC50 [6] was > 120 µM (not active) and the EC50 [7] was > 120 µM (not active).

In the case of `CCOC(=O)c1c(C)[nH]c(C)c1S(=O)(=O)N1CCN(c2ccc([N+](=O)[O-])cc2)CC1`, the EC50 [5] is reported as 23 µM (active), the EC50 [6] is reported as > 120 µM (not active) and the EC50 [7] is reported as > 120 µM (not active).

In the case of `CCc1nc2scc(-c3cccs3)c2c(=O)o1`, the EC50 [1] is reported as > 112 µM (not active) and the EC50 [2] is reported as > 112 µM (not active).

In the case of `CCCc1nc2oc3c(=O)nc[nH]c3c2c2c1CCCC2`, the EC50 [1] is reported as > 112 µM (not active).

In the case of `COc1ccc(N2CCN(C(=O)c3csc4ccccc34)CC2)cc1`, the IC50 [3] is reported as > 47.1 µM (inactive) and the EC50 [4] is reported as > 53 µM (inactive).

With `CCCc1nc2oc3c(O)ncnc3c2c2c1CCCC2` the EC50 [2] was > 112 µM (not active).

For `Cc1nc2c(s1)sc1ccccc12`, the IC50 [3] was > 47.1 µM (inactive) and the EC50 [4] was > 53 µM (inactive).

For `Cc1ccccc1NS(=O)(=O)c1ccc(C)c(C(=O)N2CCOCC2)c1`, the EC50 [8] was > 150 µM (not active), the EC50 (Streptokinase A) was > 150 µM (not active) and the EC50 (Streptococcus) was > 150 µM (not active). The IC50 [3] was > 47.1 µM (inactive) and the EC50 [4] was > 53 µM (inactive).

In the case of `C=CCNC(=S)N/N=C/c1ccc(OCc2ccccc2)cc1`, the IC50 [3] is reported as > 47.1 µM (inactive), the EC50 [4] is reported as > 53 µM (inactive) and the AC50 (Cytochrome P450 2C9) is reported as 15.8 µM (inconclusive).

With `Cc1cc(C)n2nc(/C(C#N)=C/c3ccccc3)c(C#N)c2n1` the IC50 [3] was > 47.1 µM (inactive) and the EC50 [4] was > 53 µM (inactive).

For `C/C(=N\NC(=O)c1ccc2c(c1)OCCO2)c1ccccc1`, the EC50 [1] was 12.8 µM (active) and the EC50 [2] was 2.98 µM (active).

For `CCOC(=O)C1=C(CNCc2ccccc2Cl)NC(=O)NC1c1cccc([N+](=O)[O-])c1` (configuration not stated), the EC50 [1] was > 112 µM (not active) and the EC50 [2] was > 112 µM (not active).

With `Cc1ccc(S(=O)(=O)Nc2cc(-c3nn(C)c(=O)c4ccccc34)ccc2N2CCOCC2)cc1` the EC50 [5] was > 60 µM (not active), the EC50 [6] was > 120 µM (not active) and the EC50 [7] was 10.8 µM (active).

With `CC(=O)n1c(Cl)c(NC(=O)CCl)c2ccccc21` the EC50 (BJ [9]) was 25.1 µM (active), the EC50 (BJ [10]) was > 150 µM (not active) and the EC50 (BJ [11]) was > 150 µM (not active). For the same compound, the EC50 [12] was 29.7 µM (active).

In the case of `CCOC(=O)C(CC)(CC)C(=O)/C=C/c1cccc(Br)c1`, the EC50 (BJ [9]) is reported as 10 µM (active), the EC50 (BJ [10]) is reported as 16.6 µM (active) and the EC50 (BJ [11]) is reported as 10.7 µM (inconclusive). The EC50 [12] was 9.57 µM (active).

For `O=C(Cn1c(SCC(=O)N2CCCc3ccccc32)nc2ccccc21)N1CCCC1`, the EC50 (cells [13]) was > 350 µM (not active) and the EC50 (cells [14]) was > 350 µM (not active).

In the case of `COC(=O)C(NC(=O)c1c(C)nn(C)c1Cl)c1ccccc1` (configuration not stated), the EC50 (cells [13]) is reported as > 350 µM (not active) and the EC50 (cells [14]) is reported as > 350 µM (not active).

With `CCOc1ccc(NC(=O)CSc2nnc(Cn3cnc4ccccc43)n2C)cc1` the EC50 (cells [13]) was > 350 µM (not active) and the EC50 (cells [14]) was > 350 µM (not active).

In the case of `CCOc1ccc(/C=N/NC(=O)CN2CCCCCCC2)cc1`, the IC50 [3] is reported as > 47.1 µM (inactive) and the EC50 [4] is reported as > 53 µM (inactive).

For `Cc1ccc(N(C(=O)Cn2nnc(-c3ccccc3)n2)C(C(=O)NC2CCCCC2)c2ccccn2)cc1C` (configuration not stated), the IC50 [3] was > 47.1 µM (inactive) and the EC50 [4] was > 53 µM (inactive).

With `CC(C)COc1ccc(C(=O)Nc2ccc([N+](=O)[O-])cc2)cc1` the EC50 (cells [13]) was > 350 µM (not active) and the EC50 (cells [14]) was > 350 µM (not active).

For `CCCCCCC1CCC(c2nc(-c3ccncc3)no2)CC1` (configuration not stated), the EC50 (cells [13]) was > 350 µM (not active) and the EC50 (cells [14]) was > 350 µM (not active).

With `O=[N+]([O-])c1ccc(N2CCN(S(=O)(=O)c3ccccc3)CC2)cc1NCC1CCCO1` (configuration not stated) the EC50 [5] was 18.3 µM (active), the EC50 [6] was 40.6 µM (active) and the EC50 [7] was 19.2 µM (active).

For `CCOc1ccc(N(CC(=O)NC2CCC(C)CC2)S(=O)(=O)c2c(C)noc2C)cc1` (configuration not stated), the IC50 [3] was > 47.1 µM (inactive) and the EC50 [4] was > 53 µM (inactive).

With `Cn1nnc(NC(=O)c2cccc([N+](=O)[O-])c2)n1` the EC50 (cells [13]) was > 350 µM (not active) and the EC50 (cells [14]) was > 350 µM (not active).
